Common to all, as to assay: growth of human tumour cells (NCI), 48 h
Experiment [1] concerns A498 renal.
Experiment [2] deals with ACHN renal.
The subject of experiment [3] is DU-145 prostate.
For experiment [4], the system named is HS 578T breast.
Experiment [5] deals with M14 melanoma.
The test system of experiment [6] is MALME-3M melanoma.
Experiment [7] relates to MDA-MB-231 breast.
The subject of experiment [8] is CAKI-1 renal.
The test system of experiment [9] is HOP-62 NSCLC.
Experiment [10] concerns PC-3 prostate.

Several values for one entry are separate records, joined by “and”; a condition that tells them apart may be missing. Equal entries are not always repeated.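 1) Cells in 96-well plates. 2) Compound, 48 h, 5 concentrations. 3) Linear interpolation between surrounding doses. 4) Unreached endpoint = highest concentration. GI50 is the concentration that inhibits growth by half. The concentration for full growth arrest is given as TGI.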

Regarding `CC(C)(C)OC(=O)CC(NC(=O)OCc1ccccc1)NC(=O)OC(C)(C)C` (stereo not drawn), the GI50 is 76.4 µg/mL in [1]; 51.5 µg/mL in experiment [2]; 72.3 µg/mL in [3]; 85.4 µg/mL in experiment [4]; 56.8 µg/mL in experiment [5]; 46 µg/mL in [6]. Besides, in [7], the GI50 was 52.8 µg/mL.
For `C/C=C(/CCC1NCCc2c1[nH]c1ccccc21)[Si](C)(C)C` (stereo not drawn), the TGI in [1] is 72 µM and 23.5 µM; in experiment [2] it was > 100 µM and 21.5 µM; in experiment [8], > 100 µM and 18.3 µM; in experiment [9], > 100 µM and 26.7 µM.
Turning to `CC(=O)Nc1ccc2c(c1)C(=O)c1ccccc1-2`, the TGI in [2], in [9], in [5] and in experiment [6] was > 100 µM in each case.
Regarding `COC(=O)C1=C(O)C(C(=O)OC)[C@@]2(O)[C@@H](C(=O)OC)[C@H](C)C[C@@H]1[C@@H]2C(=O)OC` (stereo partly drawn), the TGI in experiment [1] is 44.3 µM; in experiment [2], > 100 µM; in experiment [3], 50.5 µM; in experiment [9] it was > 100 µM; in experiment [4], 54.1 µM; in experiment [5] it was 39.9 µM. In addition, the results for the TGI in [6] and in experiment [7] were > 100 µM and 40.3 µM, respectively.
With `CC(C)(CCCCC(C)(C)NC1=NCCO1)NC1=NCCO1`, the TGI in [1], in experiment [2], in experiment [8], in [3], in [9] and in [4] was > 10 µM throughout. Besides, the TGI in experiment [5], in experiment [6], in experiment [7] and in [10] was > 10 µM in each case.
As for `CCOC(=O)c1c(Cl)c2c(n1Cc1ccccc1)-c1oncc1CCC2`, the GI50 in experiment [1] is 4.38 µM; in experiment [2] it was 5.89 µM; in experiment [8], 3.51 µM; in experiment [3], > 100 µM; in experiment [9], 4.35 µM; in experiment [5], 3.78 µM. The GI50 in experiment [6] is 3.68 µM; in experiment [7], 3.51 µM; in experiment [10], 3.17 µM. For the same compound, the TGI in experiment [1], in experiment [2], in experiment [8], in [3], in experiment [9] and in experiment [5] was > 100 µM throughout. The TGI in experiment [6], in experiment [7] and in experiment [10] was > 100 µM each time.
For `COC(=O)C(C)NP(=O)(OCc1cccc(Cn2cnc3c(N)ncnc32)c1)Oc1ccccc1` (stereo not drawn), the GI50 in experiment [1] is > 100 µM; in experiment [2], > 100 µM; in experiment [8] it was > 100 µM; in experiment [3], > 100 µM; in experiment [9] it was > 100 µM; in [4] it was 32.8 µM. For the same compound, the GI50 in [6] is 68.2 µM; in experiment [7] it was 51.7 µM; in experiment [10], > 100 µM. Also, the TGI in [1], in [2], in [8], in experiment [3], in experiment [9] and in experiment [4] was > 100 µM in each case. The TGI in [6], in experiment [7] and in [10] was > 100 µM throughout.
In the case of `O=[N+]([O-])c1ccc(N/N=C\c2cc(Br)ccc2O)nc1`, the GI50 in experiment [1] is 6.11 µM; in experiment [2] it was 0.461 µM; in [8] it was 0.459 µM; in experiment [3], 0.912 µM; in experiment [9], 1.59 µM; in [4], 2.13 µM. The GI50 was 1.22 µM in experiment [5], 0.511 µM in experiment [7] and 1.67 µM in experiment [10]. Further, the TGI was > 100 µM in experiment [1]; 2.56 µM in experiment [2]; 2.35 µM in experiment [8]; 5.77 µM in experiment [3]; 10.3 µM in experiment [9]; 8.93 µM in experiment [4]. For the same compound, the TGI in experiment [5] was 4.87 µM; in experiment [7], 4.76 µM; in [10], > 100 µM.
`NS(=O)(=O)c1c(O)c2ccccc2oc1=O`: the TGI in experiment [1], in experiment [2], in [8], in experiment [3], in experiment [9] and in experiment [4] was > 100 µM each time. Moreover, the TGI in experiment [5], in experiment [6], in experiment [7] and in [10] was > 100 µM throughout.
On to `NCCCCNOCCCN`, for which the TGI in experiment [2], in experiment [8], in [3], in experiment [4], in [5] and in experiment [6] was > 100 µM throughout. The TGI in experiment [10] was > 100 µM.
`O=S1(=O)C(=C(c2ccccc2)c2ccccc2)S(=O)(=O)c2ccccc21`: the TGI in experiment [1] was > 100 µM; in experiment [8], > 100 µM; in experiment [9], 46.8 µM; in [6], > 100 µM.

The record behind these values is PubChem BioAssay (NCI).
